How the values were obtained:
CAL120 = test: GRmax, 72 h; higher = less effect;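 note: breast cell lines in 384-well plates, nine doses across a 10^4 range, Dye Drop imaging of viable cells vs DMSO and time-zero plates, GR 0 means no net growth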
HCC1954 = test: GRmax, 72 h; higher = less effect;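 note: breast cell lines in 384-well plates, nine doses across a 10^4 range, Dye Drop imaging of viable cells vs DMSO and time-zero plates, GR 0 means no net growth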
MCF10A (GM) [1] = test: GRmax, 72 h; higher = less effect;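 note: breast cell lines in 384-well plates, nine doses across a 10^4 range, Dye Drop imaging of viable cells vs DMSO and time-zero plates, GR 0 means no net growth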
MDAMB453 = test: GRmax, 72 h; higher = less effect;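 note: breast cell lines in 384-well plates, nine doses across a 10^4 range, Dye Drop imaging of viable cells vs DMSO and time-zero plates, GR 0 means no net growth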
PDX1258 = test: GRmax, 72 h; higher = less effect
MCF10A (GM) [2] = test: area over the GR curve, 72 h; higher = more effect;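 note: Dye Drop or Deep Dye Drop imaging of viable cells in 384-well plates (Hoechst nuclei, LIVE/DEAD dye), nine half-log doses, GR normalized to DMSO controls and time-zero plates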
PDX1206 = test: area over the GR curve, 72 h; higher = more effect;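 note: Dye Drop or Deep Dye Drop imaging of viable cells in 384-well plates (Hoechst nuclei, LIVE/DEAD dye), nine half-log doses, GR normalized to DMSO controls and time-zero plates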

Q: Which “GRmax, 72 h” value (CAL120) does the source give for `CN1CCN(C(=O)c2ccc3cc(CCNc4ncnc5ccc(C#N)cc45)ccc3c2)CC1` [senexin b] (max 10 µM) here?
A: 0.856 GR

Q: And the “GRmax, 72 h” value (HCC1954)?
A: 0.455 GR

Q: And the “GRmax, 72 h” value (MCF10A (GM) [1])?
A: 0.893 GR

Q: What about the “GRmax, 72 h” value (MDAMB453) of the same molecule?
A: 0.148 GR

Q: And the “GRmax, 72 h” value (PDX1258)?
A: 0.603 GR

Q: And the “area over the GR curve” value (MCF10A (GM) [2])?
A: 0.0206 GR

Q: What about the “area over the GR curve” value (PDX1206) of the same molecule?
A: 0.37 GR

Source: the supplement of paper PMC9663587
